This experiment concerns the target T1, Prostaglandin D2 receptor 2 (Homo sapiens, UniProt Q9Y5Y4).
T1 sequence (Q9Y5Y4 whole entry): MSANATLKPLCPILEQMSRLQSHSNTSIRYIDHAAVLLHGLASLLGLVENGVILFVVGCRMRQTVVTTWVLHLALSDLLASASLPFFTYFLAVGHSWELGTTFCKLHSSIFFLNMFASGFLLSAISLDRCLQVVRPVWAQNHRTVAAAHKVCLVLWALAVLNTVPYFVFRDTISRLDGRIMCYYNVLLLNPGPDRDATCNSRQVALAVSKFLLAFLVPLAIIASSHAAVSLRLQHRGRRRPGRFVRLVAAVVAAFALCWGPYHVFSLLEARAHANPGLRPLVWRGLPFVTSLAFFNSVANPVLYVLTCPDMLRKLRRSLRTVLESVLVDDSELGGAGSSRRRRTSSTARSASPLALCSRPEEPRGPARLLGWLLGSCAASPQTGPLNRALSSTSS
Briefly: Radioligand Binding Assay: Radioligand binding assay using CRTH2.

For `Cc1c(Cc2cccnc2S(=O)(=O)c2ccc(F)cc2)c2cc(F)ccc2n1CC(=O)O`, the affinity corresponds to a Ki of 2 nM. The result for `Cc1c(Cc2cccnc2S(=O)(=O)c2ccc(Cl)cc2)c2cc(F)ccc2n1CC(=O)O` reads 7 nM.

In general, Ki refers to a measure of affinity in units of concentration, obtained from inhibition or displacement. Read a high Ki as weaker binding.

These data come from ChEMBL document CHEMBL3639129, “Compounds having CRTH2 antagonist activity” (2013).
